# Literature values, collected in US8703048B2, “Buffered swelling media for radiation sterilized hydrophilic coatings” (Coloplast A/S, priority 2008, dated 2014).
# Conditions: in water
pKa3,Structure (SMILES),pKa1,pKa2
,Nc1ccccc1C(=O)O [anthranilic acid],2.11,4.95
9.73,NCCC(=O)N[C@@H](Cc1cnc[nH]1)C(=O)O [carnosine],2.73,6.87
,O=C(O)CCCC(=O)O [glutaric acid],4.31,5.41

# Same assay, conditions: in water; single value given
row,Structure (SMILES),pKa
1,O=C(O)CNC(=O)c1ccccc1 [hippuric acid],3.80
2,O=C(O)[C@H](O)[C@@H](O)[C@H](O)[C@H](O)CO [gluconic acid],3.56
3,O=C(O)CCO [3-hydroxypropionic acid],3.73
4,N#CO [cyanic acid],3.92
5,F [hydrofluoric acid],3.45
